Measurements: US20180265867A1, “NUCLEIC ACID MOLECULES WITH ENHANCED ACTIVITY” (priority 2015, published 2018)
d = 2'-deoxy (DNA); r = 2'-OH (RNA)

Experiments:
β-catenin = test: Western blot of β-catenin protein in MG63 cells; type: cell-based, human; conditions: MG63, 50 nM, at 48 h, β-catenin cpRNA, no transfection reagent
Description: After 48 hours of transfection, cells were washed twice with ice-cold PBS and lysed in RIPA lysis buffer (50 mM Tris-HCl, pH 8.0, with 150 mM NaCl, 1.0% Igepal CA-630 (NP-40), 0.5% sodiumdeoxycholate, 0.1% SDS, and 1.0% protease inhibitor cocktail from SIGMA-ALDRICH®). Lysates were incubated on ice for 30 minutes and centrifuged at 10,000 rpm for 20 minutes to collect supernatant. Coomassie Plus—The Better Bradford Assay™ Reagent (Thermo Scientific) was used to measure protein concentrations. Thereafter, 20 μg of soluble protein was separated by SDS-PAGE and transferred to polyvinylidene difluoride membrane (Millipore). Primary antibodies against GAPDH (1:1000 dilution), β-catenin (1:1000 dilution; SIGMA-ALDRICH®), β-actin (1:1000; Cell Signaling Technology®) were used to probe the protein bands. Anti-Rabbit-HRP conjugated secondary antibodies (1:3000 dilution; R&D Systems®) were used to detect the primary antibodies, followed by the target protein visualization with EMD Millipore Immobilon™ Western Chemiluminescent HRP Substrate (ECL). […]
To further validate our results, we tested the gene knockdown efficiency of another gene CTNNB1 (β-catenin), which is expressed in MG63 cells. We performed a time course experiment (24, 48 and 72 h) by targeting CTNNB1 and GAPDH in MG63 cells and quantified the mRNA and protein levels using qRT-PCR and Western blot experiments respectively (FIG. 8).

GAPDH = test: Energy dependence of cpRNA uptake: transfection at 4° C. or 37° C., GAPDH knockdown; type: cell-based, human; conditions: carrier-free
Description: To determine, if cellular uptake of cpRNA is an energy dependent endocytosis process, transfection experiments were performed at 4° C. and 37° C. Briefly, HCT116, HOB and MG63 cells were plated and incubated with cpRNA (dT5 or dA5 or scrambled siRNA sequence) at 4° C. or 37° C. for 4 h. After 4 h, medium was replaced with fresh medium and the cells were incubated for additional 24 h. Untreated cells were used as controls. Each transfection was performed in triplicate. […] Cellular uptake using these siRNA sequences was reduced by nearly 30% when experiments were performed at 4° C., see FIG. 4.
Next, it was investigated if the cellular uptake mechanism of cpRNA occurred by endocytosis. Transfection experiments were performed with dT5-modified cpRNA at 4° C. and found lower RNAi activity (50% gene knockdown) compared to activity at 37° C. […] Upon endocytosis, the 5-nt overhang length participated in an unknown endosomal escape mechanism that promoted cytosol transport of RNA. […] TLR-7, -8 and -9, selectively bind single-stranded DNA or RNA sequences with TLR-7 and -8 preferentially bind U and G rich sequence while TLR-9 bind CpG nt repeats. TLR3, on the other hand, nonspecifically binds the 21mer RNA duplex after dimerization of the receptor to form a 2:1 TLR3-RNA complex. […]

dT5: GAPDH siRNA, sense SEQ ID NO: 3 with dT5 3′-overhang, antisense SEQ ID NO: 2 with dT2 (sense CCGAGCCACAUCGCUCAGATTTTT; antisense UCUGAGCGAUGUGGCUCGGTT; sense: sugars from the 5' end r19 d5, backbone not given here; antisense: sugars from the 5' end r19 d2, backbone not given here)
CTNNB1 protein level (β-catenin): complete knockout
GAPDH gene knockdown at 4° C. (GAPDH; incubation at 4° C. for 4 h, then 24 h): 50%
GAPDH gene knockdown at 37° C. (GAPDH; incubation at 37° C.): 80%
